In patent publication US8598221B2 (priority 2009, dated 2013):

Tested on: cramps induced by acetic acid in the mouse
Test: animal or person
Format: in vivo
Protocol: The analgesic effect of a nefopam-celecoxib combination was investigated in the model of abdominal cramps induced in the mouse by intraperitoneal administration of acetic acid. This model of pain induced by a chemical substance corresponds to inflammatory, visceral and acute pain.
Male CD1 mice (bred: C. River) weighing between 25 and 30 grams are used after an acclimatization for at least 7 days in the animal house (temp.=22±2; humidity=50±20%; food SAFE “A04”; nyctohemeral cycle: 12 h/12 h (light: 7 h/19 h−darkness: 19 h/7 h)). • 2. Protocol
On the day of the experiment, the non-fasting mice are weighed, marked and distributed at random in batches of 10. The acetic acid solution (Sigma) is prepared at 0.6%, or 60 mg of acetic acid in 10 ml of 0.9% NaCl.
At t=0, the mouse receives celecoxib by the oral route. At t=30 min, the mouse is administered nefopam or its liquid vehicle by the subcutaneous route. At t=60 min, the acetic acid is injected intraperitoneally (0.1 ml/10 g).
The number of abdominal cramps is counted from 5 to 20 minutes after injection of acetic acid. Frank abdominal cramps characterized by stretching of the hindpaws and/or hollowing of the flanks with twisting are regarded as positive. • 3. Products
Nefopam hydrochloride (Biocodex, batch 38) (called simply nefopam hereunder) is dissolved in distilled water or 0.9% NaCl. Celecoxib (Celebrex® capsules) is suspended in Tween 80 at 1%. • 4. Statistical Analysis
The test used is an analysis of variance for 3 or more groups and a Student t-test for 2 groups. Then the treated group or groups that differ from the control group are determined. […] At least 10 mice are used for each dose, and at least 3 doses are used for determining the dose-response curve. The dose that produces 50% of antinociceptive effect (50% decrease in number of cramps) is calculated by a standard linear regression analysis of the dose-response curve.
The interaction is evaluated by an isobolographic analysis of the co-administration of a combination of doses at fixed ratio according to Tallarida (2000) op. cit., Tallarida et al. (1989) Life Sci. 45:947-961 and Tallarida et al. (1997) Life Sci. 61:PL417-PL425. The isobologram is constructed by joining the ED50 of celecoxib with that of nefopam to obtain the line of additivity. The ED50 of the combination is determined by linear regression analysis of the dose-response curve, and it is compared by a t-test with a theoretical additive ED50 obtained using the PharmToolsPro software.

SMILES: Cc1ccc(-c2cc(C(F)(F)F)nn2-c2ccc(S(N)(=O)=O)cc2)cc1 [Celecoxib, celecoxib]
- ED50 (Mus musculus, read-out: ED50 (dose producing 50% decrease in number of cramps)): 40.2 ± 8.06 mg/kg
- % variation of number of cramps (celecoxib 10 mg/kg oral): −9%
- Number of cramps (mean ± SEM) (celecoxib 10 mg/kg oral): 28.2 ± 2.9
- % variation of number of cramps (celecoxib 20 mg/kg oral): −42%
- Number of cramps (mean ± SEM) (celecoxib 20 mg/kg oral): 18.1 ± 3.2
- % variation of number of cramps (celecoxib 50 mg/kg oral): −39%
- Number of cramps (mean ± SEM) (celecoxib 50 mg/kg oral): 18.9 ± 2.2
- % variation of number of cramps (celecoxib 75 mg/kg oral): −72%
- Number of cramps (mean ± SEM) (celecoxib 75 mg/kg oral): 8.6 ± 2.1
- % variation of number of cramps (celecoxib 150 mg/kg oral): −90%
- Number of cramps (mean ± SEM) (celecoxib 150 mg/kg oral): 3.2 ± 1.0
